The values below are quoted from earlier work in US8377979B2, “Pharmaceutical formulation containing phenytoin sodium and magnesium stearate” (Taro Pharmaceuticals North America, Inc., priority 2005, dated 2013).

The conditions of data set [1]: man, oral administration.
The conditions of data set [2]: gastrointestinal pH range of 1 to 8.

For `O=C1NC(=O)C(c2ccccc2)(c2ccccc2)N1` [phenytoin, 5,5-diphenyl-2,4-imidazolidinedione], the “plasma half-life, average” value in data set [1] was 22 h. The solubility entry in data set [2] is recorded as “practically insoluble”.
